Measurements published in patent US8552050B2, “Activators of pyruvate kinase M2 and methods of treating disease” (Beth Israel Deaconess Medical Center, priority 2007, dated 2013).
Each block holds one compound with its values, some of them ahead of it. Square brackets hold non-standard residues; d marks the D form. Ends that are not written are not given here. pY = N[C@@H](Cc1ccc(OP(=O)(O)O)cc1)C(=O)O

Legend:
PKM2 [1] = molecular target: T1, PKM2 (Homo sapiens, UniProt P14618); assay: Recombinant PKM2 activity with P-M2tide / NP-M2tide, LDH-coupled assay; assay type: biochemical; design: His6 (N); made in house; host or cells: E. coli BL21(DE3)pLysS; conditions: dose-dependent; FIG. 6a
Description: Multiple phosphoTyr peptides comprising in vivo phosphorylation sites previously identified on metabolic proteins (Villen et al., Proc. Natl. Acad. Sci. USA 104: 1488-93, 2007) were synthesized. Several of these phosphoTyr peptides, as well as multiple phosphoTyr peptides designed after known tyrosine kinase motifs, were also shown to inhibit PKM2 activity (FIG. 6b).
Target sequence in this assay (P14618 whole entry): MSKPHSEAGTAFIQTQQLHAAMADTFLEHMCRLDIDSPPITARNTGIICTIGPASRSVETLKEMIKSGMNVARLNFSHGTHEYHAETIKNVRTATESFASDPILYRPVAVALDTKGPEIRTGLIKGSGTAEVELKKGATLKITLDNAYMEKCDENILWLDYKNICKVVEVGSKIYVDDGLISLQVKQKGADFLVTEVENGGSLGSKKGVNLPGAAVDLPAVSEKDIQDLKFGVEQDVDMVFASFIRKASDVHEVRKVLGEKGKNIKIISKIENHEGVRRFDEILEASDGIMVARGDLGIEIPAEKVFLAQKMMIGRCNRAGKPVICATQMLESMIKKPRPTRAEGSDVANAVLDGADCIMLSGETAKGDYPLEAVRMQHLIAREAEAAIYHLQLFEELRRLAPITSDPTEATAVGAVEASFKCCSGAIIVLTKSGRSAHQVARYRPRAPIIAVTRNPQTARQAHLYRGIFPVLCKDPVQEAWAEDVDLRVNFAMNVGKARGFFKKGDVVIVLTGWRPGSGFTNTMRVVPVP

PKM2 [2] = molecular target: T1, PKM2; assay: Release of 14C-FBP from FBP-loaded recombinant PKM2 after peptide exposure and dialysis; assay type: binding; design: His6 (N); made in house; host or cells: E. coli BL21(DE3)pLysS; conditions: 14C counts retained after dialysis; FIG. 4e
Description: To examine the effect of phosphoTyr peptide binding on FBP-bound PKM2, a peptide-binding motif for PKM2 was obtained using traditional peptide library screening. Both the phosphorylated (P-M2tide) and unphosphorylated (NP-M2tide) versions of the optimal peptide were synthesized: P-M2tide (GGAVDDDpYAQFANGG SEQ ID NO:1) and NP-M2tide (GGAVDDDYAQFANGG SEQ ID NO:2) (FIG. 5). The FBP-loaded recombinant PKM2 was incubated with P-M2tide or NP-M2tide, the unbound FBP and peptide were dialyzed away, and the counts retained on the PKM2 were measured.
Target sequence in this assay (P14618 whole entry): as above

PKM2 [3] = molecular target: T1, PKM2; assay: PKM2 inhibition assay, LDH-coupled, FBP added in excess; assay type: biochemical; conditions: read-out: Inhibition of PKM2 Activity
Description: (§1) For the inhibition assays, a candidate compound (2 μl 100×) was added into a well. In a control well, 2 μl of DMSO was added in place of the candidate compound. […] The mixture incubated at room temperature for 30 minutes. Immediately prior to measurement readings, 10 μl PEP (0.5 mM) and 2 μl FBP/H2O (0.5 μM) were added to each well. The FBP was added in excess.
Target sequence in this assay (P14618 whole entry): as above

Flag-tagged PKM2 = molecular target: T2, Flag-tagged PKM2 (Mus musculus, UniProt P52480); assay: 3H bound to immunoprecipitated Flag-tagged PKM2 in cells cultured with 3H-glucose; assay type: cell-based; conditions: 15-minute treatment with pervanadate
T2 construct: expressed in transfected cells
T2 sequence (P52480 whole entry): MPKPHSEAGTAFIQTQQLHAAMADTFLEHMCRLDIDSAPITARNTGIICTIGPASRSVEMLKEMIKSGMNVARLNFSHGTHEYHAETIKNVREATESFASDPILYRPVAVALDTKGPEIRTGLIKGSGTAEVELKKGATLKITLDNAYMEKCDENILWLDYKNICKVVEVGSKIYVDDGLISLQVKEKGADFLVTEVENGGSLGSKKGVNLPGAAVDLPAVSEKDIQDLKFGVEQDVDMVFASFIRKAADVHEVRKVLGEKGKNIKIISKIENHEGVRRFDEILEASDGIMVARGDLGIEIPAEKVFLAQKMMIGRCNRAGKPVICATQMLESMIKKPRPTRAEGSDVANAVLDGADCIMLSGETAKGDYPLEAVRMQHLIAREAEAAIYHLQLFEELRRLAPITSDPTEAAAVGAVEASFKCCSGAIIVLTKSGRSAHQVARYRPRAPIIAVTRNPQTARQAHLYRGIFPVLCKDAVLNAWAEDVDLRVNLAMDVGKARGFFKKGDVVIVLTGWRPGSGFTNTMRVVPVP
Description: Next, the ability of phosphoTyr protein binding to catalyze the release of FBP from PKM2 in vivo was tested. To address this, cells were cultured overnight with ^3H-glucose that can be metabolized to ^3H-FBP. Flag-tagged PKM2 was immunoprecipitated and the amount of ^3H bound to PKM2 with and without pervanadate-treatment was determined by scintillation counting.

PKM2-expressing cells [4] = assay: Incorporation of metabolites from 14C-glucose into lipids; assay type: cell-based
Description: (§2) Consistent with this model, a 25% increase in the incorporation of metabolites from ^14C-glucose into lipids upon pervanadate-treatment of PKM2-expressing cells was observed. […] A similar increase in the incorporation of ^14C-glucose metabolites into lipids was observed upon pervanadate stimulation of 293 cells.

PKM2-expressing cells [5] = assay: Cellular oxygen consumption after acute pervanadate stimulation; assay type: cell-based
Description: as §2
Cellular oxygen consumption rates were measured using a water-jacketed (37° C.) anaerobic chamber fitted with a polarographic oxygen electrode as described previously (Vander Heiden et al, Mol Cell Biol 21: 5899-912, 2001). The electrode was calibrated with 150 mM NaCl equilibrated to room air at 37° C. (corresponding to 199 nmol O2/ml).

pyruvate kinase = conditions: pervanadate stimulation
Description: Pyruvate kinase activity was measured according to published methods by a continuous assay coupled to lactate dehydrogenase (LDH). The change in absorbance at 340 nm due to oxidation of NADH was measured using a Victor^3 1420 Multilabel Counter spectrophotometer (PerkinElmer, Inc.). Kinetic assays for activity determinations contained recombinant PK (20-100 ng) or cell lysate (1-2 μg), Tris (pH 7.5) (50 mM), KCl (100 mM), MgCl2 (5 mM), ADP (0.6 mM), PEP (0.5 mM), NADH (180 pM), FBP (10 pM), and LDH (8 units).

PKM2 [6] = molecular target: T1, PKM2; assay: PKM2 activator assay, LDH-coupled, no FBP added; assay type: biochemical
Description: as §1, with “the activator” for “the inhibition”, “for 5” for “for 30”, “mM)” for “mM) and 2 μl FBP/H2O (0.5 μM)”, “well. No” for “well. The”, “was added.” for “was added in excess.”
Target sequence in this assay (P14618 whole entry): as the sequence (P14618 whole entry) above

recombinant PKM1 = molecular target: T3, recombinant PKM1 (Homo sapiens, UniProt P14618); assay: 14C-FBP retention on protein after dialysis, scintillation counting; assay type: binding; conditions: ~10 μM 14C-FBP, 1 μM protein
T3 construct: made in house
T3 sequence (P14618 1-531 isoform P14618-2, species assumed): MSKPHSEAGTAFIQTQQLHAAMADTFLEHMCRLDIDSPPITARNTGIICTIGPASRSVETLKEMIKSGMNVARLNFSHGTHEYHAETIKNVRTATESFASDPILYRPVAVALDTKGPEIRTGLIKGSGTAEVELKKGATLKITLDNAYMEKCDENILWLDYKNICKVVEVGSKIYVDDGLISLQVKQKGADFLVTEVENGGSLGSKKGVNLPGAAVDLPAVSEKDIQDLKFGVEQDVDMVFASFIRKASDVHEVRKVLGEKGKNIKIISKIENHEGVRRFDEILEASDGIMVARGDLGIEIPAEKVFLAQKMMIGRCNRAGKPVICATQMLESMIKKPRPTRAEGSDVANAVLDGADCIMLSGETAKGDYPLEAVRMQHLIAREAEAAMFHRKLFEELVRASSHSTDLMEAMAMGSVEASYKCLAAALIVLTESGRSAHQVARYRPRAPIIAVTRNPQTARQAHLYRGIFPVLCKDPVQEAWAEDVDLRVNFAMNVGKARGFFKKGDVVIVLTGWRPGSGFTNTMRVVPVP
Description: (§3) However, FBP concentrations following protein purification would be orders of magnitude lower than this value. […] The PKM1, PKM2, and no-protein control were incubated with ^14C-FBP for 30 minutes at room temperature and then […] dialyzed against >2 L of buffer using 10,000 MWCO dialysis cassettes (Pierce) for at least 7 hours. After dialysis, samples were recovered and the amount of ^14C-FBP retained in each dialysis cassette was determined by scintillation counting. […] Upon further analysis, it was estimated that ^14C FBP is retained at roughly half a mole per mole on the PKM2 protein.

PKM2 [7] = molecular target: T1, PKM2; conditions: Yamada and Noguchi 1999; cited from earlier work
Target sequence in this assay (P14618 whole entry, species assumed): as the sequence (P14618 whole entry) above

PKM2 [8] = molecular target: T1, PKM2; assay: FBP competition for binding of recombinant PKM2 to phosphoTyr peptide affinity matrix; design: His6 (N); made in house; host or cells: E. coli BL21(DE3)pLysS; conditions: FIG. 2b
Description: To determine if the FBP binding pocket on PKM2 coordinates phosphoTyr peptide binding, it was assessed whether FBP could compete for binding of PKM2 to a phosphoTyr peptide library column. Recombinant protein was synthesized by cloning human PKM2 into a pET28a vector (Novagen) at NdeI and BamHI sites and PKM2 was expressed as a N-terminal His6 tag fusion protein. The protein was expressed and purified with a standard protocol. Briefly, pET28a-PKM2 was transformed into BL2 I (DE3)pLysS cells and grown to an OD600 of 0.8 and induced with 0.5 mM IPTG for seven hours at room temperature. Cells were lysed using lysozyme in lysis buffer (50 mM Tris, pH 8.0, 10 mM MgCl2, 200 mM NaCl, 100 mM KCl, 20% glycerol, 10 mM imidazole, 1 mM PMSF). The cell lysate was cleared by centrifugation. PKM2 was purified by batch binding to Ni—NTA resin (Qiagen). The resin was then washed with lysis buffer containing 30 mM imidazole for 200 column volumes, and His6-tag-PKM2 was eluted with 250 mM imidazole. The protein was dialyzed overnight at 4° C. to remove the imidazole.
Recombinant PKM2 was incubated with increasing amounts of FBP and then flowed over the phosphoTyr peptide affinity matrix. 20 μM FBP was able to compete for binding of recombinant PKM2 to phosphoTyr peptides (FIG. 2b). […]
Target sequence in this assay (P14618 whole entry): as above

PKM2 [9] = molecular target: T1, PKM2; assay: 14C-FBP retention on protein after dialysis, scintillation counting; assay type: binding; design: His6 (N); made in house; host or cells: E. coli BL21(DE3)pLysS
Description: as §3
Target sequence in this assay (P14618 whole entry): as above

M1 and M2 rescue cells = assay: Proliferation of M1 and M2 rescue cells with oligomycin; assay type: cell-based, human; conditions: subsaturating oligomycin (125 nM); M1 vs M2 rescue cells
Description: To examine whether PKM2 expression enhances tumor cell growth under lowered oxygen and glucose conditions, proliferation rates of the M1 and M2 rescue cells (M2 knockdown cells expressing mM1 or mM2) were measured in physiologic glucose levels and hypoxic oxygen. […] The percent decrease in oxygen consumption following addition of subsaturating amounts of oligomycin, a specific inhibitor of mitochondrial ATP synthase, was the same in both the M1 and M2 cells.
5×10^4 cells were seeded in triplicate in 6-well plates and accurate cell counts were obtained every 24 hours using a Coulter particle analyzer for a 3-5 day period. Time zero was taken 16 hours post-seeding. Cells grown in low oxygen were incubated in a sealed hypoxia chamber set to 0.5% oxygen. Cells grown in the presence of oligomycin were treated with 125 nM oligomycin at time zero.

Compound: pervanadate
- reduction in 3H that immunoprecipitated with PKM2 (Flag-tagged PKM2): 30±13%
- increase in the incorporation of metabolites from 14C-glucose into lipids (PKM2-expressing cells [4]; PKM2-expressing cells): 25%
- 14C incorporation into lipids (PKM2-expressing cells [4]; cells expressing the KE point mutant of PKM2): no significant increase
- decrease in oxygen consumption (PKM2-expressing cells [5]; M2KE-expressing cells): 15±4%
- decrease in oxygen consumption (PKM2-expressing cells [5]; PKM2-expressing cells): 36±1%
- decrease in total pyruvate kinase activity (pyruvate kinase; 293, A549 and H1299 cells, FIG. 6c): 20-30%
- pyruvate kinase activity in M1-, M2-, M2KE-, L-expressing knockdown cells (pyruvate kinase; H1299 knockdown/rescue cells, FIG. 6g): specific inhibition of pyruvate kinase activity only in the wild-type M2-expressing cells

Compound: GGAVDDDYAQFANGG [NP-M2tide]
- FBP retained on / released from PKM2 (PKM2 [2]): significant amount of FBP remaining bound to PKM2

Compound: CC[C@H]1/C=C/C=C/C[C@@H](C)[C@H](O)[C@@](C)(O)C(=O)[C@@H](C)[C@H](O)[C@@H](C)C(=O)[C@@H](C)[C@H](O)[C@@H](C)/C=C/C(=O)O[C@@H]2[C@H](C)[C@H](CC1)O[C@]1(CC[C@H](C)[C@H](C[C@@H](C)O)O1)[C@H]2C [oligomycin]
- effect on proliferation rate (M1 and M2 rescue cells): affected the proliferation rate of the M1 cells significantly more than the M2 cells

Second part, led by results:

- inhibition of PKM2 activity (PKM2 [1]): 20-30%
- FBP retained on / released from PKM2 (PKM2 [2]): release of the majority of the FBP
Compound: GGAVDDDpYAQFANGG (GGAVDDD[pY]AQFANGG) [P-M2tide]

- inhibition at 10 µM (PKM2 [3]; 0.01 mM compound): 21%
- inhibition at 100 µM (PKM2 [3]; 0.1 mM compound): 36%
- inhibition at 1000 µM (PKM2 [3]; 1 mM compound): 55%
Compound: Cc1ccc(C)n1-c1ccc(O)c(C(=O)O)c1

- % Activation of PKM2 by FBP (PKM2 [6]; 0.1 μM FBP): 62%
- % Activation of PKM2 by FBP (PKM2 [6]; 0.3 μM FBP): 89%
- % Activation of PKM2 by FBP (PKM2 [6]; 1 μM FBP): 114%
- FBP concentration able to compete for binding of recombinant PKM2 to phosphoTyr peptides (PKM2 [8]): 20 µM
- 14C FBP retained on the PKM2 protein (PKM2 [9]; estimated upon further analysis): roughly half
- more 14C counts than PKM1 sample and no-protein control (PKM2 [9]; ~10 μM 14C-FBP, 1 μM protein, after dialysis): 52±5%
Compound: O=C(COP(=O)(O)O)[C@@H](O)[C@H](O)[C@H](O)COP(=O)(O)O [FBP, fructose-1,6-bisphosphate]
- 14C counts retained in PKM1 sample (recombinant PKM1): same amount of ^14C counts as the no-protein control sample
- Ka values for FBP binding to PKM2 (PKM2 [7]): micromolar range
